Converted amounts (≈) assume the structure as drawn.
How the values were obtained:
Test in all cases: ≥ marks a high value that may be exact or a test limit, other limits are often not marked, values filed in µg/mL are converted to µM
[1] = test system: Listeria monocytogenes EGD
[2] = test system: Klebsiella pneumoniae ATCC 700603
Shigella dysenteriae = test system: Shigella dysenteriae
Staphylococcus aureus 37 = test system: Staphylococcus aureus 37
[3] = test system: Enterobacter cloacae ATCC 13047
[4] = test system: Staphylococcus aureus ATCC 25923
Klebsiella pneumoniae = test system: Klebsiella pneumoniae
[5] = test system: Candida albicans ATCC 2002
[6] = test system: Pseudomonas aeruginosa ATCC 27853
[7] = test system: Candida albicans ATCC 90028
[8] = test system: Escherichia coli ATCC 25922
Escherichia coli 37 = test system: Escherichia coli 37
[9] = test system: Pseudomonas aeruginosa CMCCB 1010
[10] = test system: Candida parapsilosis ATCC 22019
Pseudomonas aeruginosa = test system: Pseudomonas aeruginosa
[11] = test system: Enterococcus faecalis ATCC 29212
[12] = test system: Pseudomonas aeruginosa PAO1
[13] = test system: Klebsiella pneumoniae NDM-1
[14] = test system: Escherichia coli ATCC 35218
Enterobacter cloacae = test system: Enterobacter cloacae
Vibrio cholerae = test system: Vibrio cholerae
Escherichia coli UTI89 = test system: Escherichia coli UTI89
Escherichia coli K-12 = test system: Escherichia coli K-12
[15] = test system: Pseudomonas aeruginosa PA214
[16] = test system: Acinetobacter baumannii ATCC 19606
[17] = test system: Enterococcus faecium ATCC 700221
[18] = test system: Staphylococcus aureus ATCC 33591
[19] = test system: Acinetobacter baumannii ATCC BAA-1605
[20] = test system: Acinetobacter baumannii CR17
Escherichia coli BW25113 = test system: Escherichia coli BW25113
[21] = test system: Escherichia coli BW25113 ΔsbmA
Escherichia coli = test system: Escherichia coli
[22] = test system: Listeria monocytogenes CGMCC 1.1075
[23] = test system: Salmonella typhimurium ATCC 7731
Escherichia coli UB1005 = test system: Escherichia coli UB1005
Acinetobacter baumannii = test system: Acinetobacter baumannii
[24] = test system: Staphylococcus aureus ATCC 43300
[25] = test system: Bacillus cereus CGMCC 1.932
Escherichia coli K88 = test system: Escherichia coli K88
[26] = test system: Bacillus subtilis CMCC 63501
[27] = test system: Salmonella enterica subsp. enterica serovar Typhimurium ATCC 14028
[28] = test system: Salmonella enterica subsp. enterica serovar Pullorum ATCC 7913
Escherichia coli K99 = test system: Escherichia coli K99
[29] = test system: Staphylococcus epidermidis ATCC 12228
Escherichia coli 078 = test system: Escherichia coli 078

`CC[C@H](C)[C@H](NC(=O)[C@H](Cc1cnc[nH]1)NC(=O)[C@@H](NC(=O)[C@H](CCCN=C(N)N)NC(=O)[C@H](CCCCN)NC(=O)[C@H](CCCN=C(N)N)NC(=O)[C@H](CCCCN)NC(=O)[C@H](CC(N)=O)NC(=O)[C@H](Cc1ccc(O)cc1)NC(=O)[C@H](CC(N)=O)NC(=O)[C@@H]1CCCN1C(=O)[C@H](CCCN=C(N)N)NC(=O)[C@@H](NC(=O)[C@@H](N)CS)[C@@H](C)O)[C@@H](C)CC)C(=O)NCC(=O)O` [CTRPNYNKRKRIHIG] gave an MIC [1] of 5.76 µM (≈ 10.7 µg/mL).
`CC[C@H](C)[C@H](NC(=O)[C@@H](NC(=O)[C@@H]1CCCN1C(=O)[C@H](CC(C)C)NC(=O)[C@@H](N)Cc1ccccc1)[C@@H](C)CC)C(=O)NCC(=O)N[C@@H](CCCCN)C(=O)N[C@@H](CC(C)C)C(=O)N[C@@H](CC(C)C)C(=O)N[C@@H](CO)C(=O)NCC(=O)N[C@@H](CC(C)C)C(=O)N[C@@H](CC(C)C)C(=O)O` [FLPIIGKLLSGLL] showed an MIC [2] of 7.23 µM (≈ 10 µg/mL), an MIC (Shigella dysenteriae) of 14.5 µM (≈ 20 µg/mL) and an MIC (Staphylococcus aureus 37) of 3.61 µM (≈ 5 µg/mL). It also gave an MIC [3] of 1.81 µM (≈ 2.5 µg/mL), an MIC [4] of 0.867 µM (≈ 1.2 µg/mL) and an MIC (Klebsiella pneumoniae) of 28.9 µM (≈ 40 µg/mL). It also gave an MIC [5] of 7.23 µM (≈ 10 µg/mL), an MIC [6] of 28.9 µM (≈ 40 µg/mL) and an MIC [7] of 7.23 µM (≈ 10 µg/mL). For the same compound, the MIC [8] was 1.81 µM (≈ 2.5 µg/mL), the MIC (Escherichia coli 37) was 14.5 µM (≈ 20 µg/mL) and the MIC [9] was 7.23 µM (≈ 10 µg/mL). It also gave an MIC [10] of 1.81 µM (≈ 2.5 µg/mL), an MIC (Pseudomonas aeruginosa) of 3.61 µM (≈ 5 µg/mL) and an MIC [11] of 3.61 µM (≈ 5 µg/mL).
With `CC[C@H](C)[C@H](NC(=O)[C@@H](NC(=O)[C@@H]1CCCN1C(=O)[C@H](CO)NC(=O)[C@H](CC(C)C)NC(=O)[C@H](CCCCN)NC(=O)[C@H](CCCCN)NC(=O)[C@H](Cc1ccccc1)NC(=O)[C@H](CC(C)C)NC(=O)[C@H](CCCCN)NC(=O)[C@H](CCCCN)NC(=O)[C@H](CC(C)C)NC(=O)[C@H](CCCCN)NC(=O)[C@H](CCCCN)NC(=O)[C@H](CCCN=C(N)N)NC(=O)[C@H](Cc1ccccc1)NC(=O)[C@H](CCCN=C(N)N)NC(=O)[C@H](CCCCN)NC(=O)[C@H](Cc1ccccc1)NC(=O)[C@H](CCCN=C(N)N)NC(=O)CN)C(C)C)C(=O)N1CCC[C@H]1C(=O)N[C@@H](CC(C)C)C(=O)N[C@@H](CC(C)C)C(=O)N[C@@H](Cc1cnc[nH]1)C(=O)N[C@@H](CC(C)C)C(=O)NCC(=O)O` [GRFKRFRKKLKKLFKKLSPVIPLLHLG] the MIC [2] was 4 µM (≈ 13 µg/mL), the MIC [12] was 4 µM (≈ 13 µg/mL) and the MIC [13] was 4 µM (≈ 13 µg/mL). The MIC [14] was 4 µM (≈ 13 µg/mL), the MIC (Enterobacter cloacae) was 4 µM (≈ 13 µg/mL) and the MIC (Klebsiella pneumoniae) was 5.66 µM (≈ 18.4 µg/mL). For the same compound, the MIC [6] was 4 µM (≈ 13 µg/mL), the MIC [8] was 4 µM (≈ 13 µg/mL) and the MIC (Vibrio cholerae) was 2.83 µM (≈ 9.19 µg/mL). The MIC (Escherichia coli UTI89) was 4 µM (≈ 13 µg/mL).
With `C[C@H](NC(=O)[C@H](C)NC(=O)[C@H](CCCCN)NC(=O)[C@H](Cc1ccccc1)NC(=O)[C@H](C)NC(=O)[C@H](CCCCN)NC(=O)[C@H](C)NC(=O)[C@H](Cc1c[nH]c2ccccc12)NC(=O)[C@H](C)NC(=O)[C@H](CCCCN)NC(=O)[C@H](C)NC(=O)[C@H](Cc1ccccc1)NC(=O)[C@H](CCCCN)NC(=O)[C@H](CCCCN)NC(=O)[C@H](C)NC(=O)[C@H](C)NC(=O)[C@@H](N)CCCCN)C(N)=O` [KAAKKFAKAWAKAFKAA] the MIC [12] was 50 µM (≈ 91.8 µg/mL), the MIC (Escherichia coli K-12) was 12.5 µM (≈ 22.9 µg/mL) and the MIC [15] was ≥ 50 µM.
Work on `CC[C@H](C)[C@H](NC(=O)[C@H](CCCCN)NC(=O)[C@H](CCCCN)NC(=O)[C@H](Cc1ccccc1)NC(=O)[C@H](CC(C)C)NC(=O)[C@H](CCCCN)NC(=O)[C@@H](N)CCCCN)C(=O)N[C@@H](CC(C)C)C(=O)N[C@@H](CCCN=C(N)N)C(=O)N[C@@H](Cc1ccc(O)cc1)C(=O)N[C@@H](CC(C)C)C(N)=O` [KKLFKKILRYL] yielded an MIC [2] of 5.86 µM (≈ 8.49 µg/mL), an MIC [16] of 5.86 µM (≈ 8.49 µg/mL) and an MIC [17] of 5.86 µM (≈ 8.49 µg/mL). For the same compound, the MIC [18] was 23.1 µM (≈ 33.5 µg/mL), the MIC [6] was 11.7 µM (≈ 17 µg/mL) and the MIC [8] was 5.86 µM (≈ 8.49 µg/mL). The MIC [19] was 2.76 µM (≈ 4 µg/mL) and the MIC [20] was ≥ 32.7 µM.
For `CC[C@H](C)[C@H](NC(=O)[C@@H]1CCCN1C(=O)[C@@H]1CCCN1C(=O)[C@H](CCCN=C(N)N)NC(=O)[C@H](Cc1ccccc1)NC(=O)[C@@H](N)CCCN=C(N)N)C(=O)N[C@@H](CCCN=C(N)N)C(=O)N[C@@H](CCCN=C(N)N)C(=O)N1CCC[C@H]1C(=O)N1CCC[C@H]1C(=O)N[C@H](C(=O)N[C@@H](CCCN=C(N)N)C(=O)N1CCC[C@H]1C(=O)N1CCC[C@H]1C(=O)N[C@@H](Cc1ccccc1)C(=O)N[C@@H](Cc1ccc(O)cc1)C(=O)N[C@@H](CCCN=C(N)N)C(=O)O)[C@@H](C)CC` [RFRPPIRRPPIRPPFYR], the MIC [2] was > 64 µM, the MIC (Escherichia coli BW25113) was 8 µM (≈ 17.8 µg/mL) and the MIC [21] was ≥ 64 µM. The MIC [16] was 64 µM (≈ 142 µg/mL), the MIC [4] was > 64 µM and the MIC [6] was > 64 µM. The MIC (Escherichia coli) was 4 µM (≈ 8.89 µg/mL).
Compound `NC(=O)[C@H](Cc1ccccc1)NC(=O)[C@H](CCCN=C(N)N)NC(=O)[C@H](Cc1c[nH]c2ccccc12)NC(=O)[C@H](CCCN=C(N)N)NC(=O)[C@H](Cc1c[nH]c2ccccc12)NC(=O)[C@H](Cc1c[nH]c2ccccc12)NC(=O)[C@H](Cc1c[nH]c2ccccc12)NC(=O)[C@H](CCCN=C(N)N)NC(=O)[C@H](Cc1c[nH]c2ccccc12)NC(=O)[C@@H](N)CCCN=C(N)N` [RWRWWWRWRF] has an MIC [22] of 1 µM (≈ 1.72 µg/mL), an MIC [23] of 4 µM (≈ 6.88 µg/mL) and an MIC (Escherichia coli UB1005) of 8 µM (≈ 13.8 µg/mL). The MIC (Acinetobacter baumannii) was 2 µM (≈ 3.44 µg/mL), the MIC [24] was 2 µM (≈ 3.44 µg/mL) and the MIC [12] was 4 µM (≈ 6.88 µg/mL). It also gave an MIC [25] of 8 µM (≈ 13.8 µg/mL), an MIC (Escherichia coli K88) of 4 µM (≈ 6.88 µg/mL) and an MIC [4] of 2 µM (≈ 3.44 µg/mL). The MIC [26] was 2 µM (≈ 3.44 µg/mL), the MIC [27] was 8 µM (≈ 13.8 µg/mL) and the MIC [6] was 16 µM (≈ 27.5 µg/mL). It also gave an MIC [28] of 8 µM (≈ 13.8 µg/mL), an MIC (Escherichia coli K99) of 4 µM (≈ 6.88 µg/mL) and an MIC [29] of 2 µM (≈ 3.44 µg/mL). For the same compound, the MIC [11] was 4 µM (≈ 6.88 µg/mL) and the MIC (Escherichia coli 078) was 4 µM (≈ 6.88 µg/mL).

— DBAASP
